Source: patent publication US7317038B2, “Nerve regeneration promoters containing semaphorin inhibitor as the active ingredient” (Dainippon Sumitomo Pharma Co., Ltd., priority 2000, dated 2008)
“Also recorded” adds a separate entry of the source.

What was measured:
Sema3A = biological target: T1, Sema3A (Mus musculus, UniProt O08665); assay: Collagen gel co-culture: suppression of neurite outgrowth inhibitory action of Sema3A; format: cell-based; set-up: key to suppression of neurite outgrowth inhibitory activity of Sema3A, score / inhibition of neurite outgrowth-inhibitory action of Sema3A, score: neurites outgrew in a complete concentric circular shape just like for the control groups where Sema3A-non-expressing COS7 cells were used, it was scored +++ (a strong inhibitory effect for Sema3A); outgrowth was found almost in a concentric circular shape accompanied with a little suppression of the outgrowth toward the direction of Sema3A-expressing COS cells, it was scored ++; outgrowth toward the direction of Sema3A-expressing COS cells is fairly suppressed to present a crescent shape, it was scored +; outgrowth toward the direction of Sema3A-expressing COS cells was not found at all (no inhibitory effect for Sema3A), it was scored −; settings: for suppression of neurite outgrowth inhibitory activity of Sema3A, score: Example 5
T1 construct: expressed in transfected cells; host or cells: COS7
T1 sequence (O08665 21-772): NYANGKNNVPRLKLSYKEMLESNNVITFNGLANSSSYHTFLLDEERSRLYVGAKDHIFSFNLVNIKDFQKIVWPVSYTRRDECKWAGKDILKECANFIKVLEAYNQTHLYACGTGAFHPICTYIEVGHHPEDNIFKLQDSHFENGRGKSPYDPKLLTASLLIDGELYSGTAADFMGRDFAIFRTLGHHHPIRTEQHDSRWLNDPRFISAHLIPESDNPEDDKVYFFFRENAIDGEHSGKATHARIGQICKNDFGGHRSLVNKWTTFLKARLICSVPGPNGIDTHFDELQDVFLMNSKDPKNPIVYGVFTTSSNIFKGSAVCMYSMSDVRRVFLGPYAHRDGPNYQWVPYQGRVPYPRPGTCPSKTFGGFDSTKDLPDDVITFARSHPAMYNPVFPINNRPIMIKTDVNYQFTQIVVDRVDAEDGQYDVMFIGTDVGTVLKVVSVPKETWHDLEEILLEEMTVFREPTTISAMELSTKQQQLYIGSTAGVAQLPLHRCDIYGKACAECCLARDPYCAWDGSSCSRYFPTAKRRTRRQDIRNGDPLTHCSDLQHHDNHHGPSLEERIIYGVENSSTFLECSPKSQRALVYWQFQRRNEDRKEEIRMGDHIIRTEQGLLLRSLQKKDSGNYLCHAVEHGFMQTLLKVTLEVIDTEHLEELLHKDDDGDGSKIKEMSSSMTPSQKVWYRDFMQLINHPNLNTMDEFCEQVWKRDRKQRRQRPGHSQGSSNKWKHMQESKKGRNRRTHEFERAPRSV
Method: Whether the object compounds (SPF-3059-1, M162, A721) have persistent inhibitory action to Sema3A was analyzed by the collagen gel co-culture method (Neuroprotocols 4, 116, 1994) using Sema3A-expressing COS7 cell clumps and 7- or 8-day-old chick embryo dorsal root ganglions. The Sema3A-expressing COS7 cell clumps were generated as follows. 1 μg of Sema3A-expression plasmid was introduced into COS7 cells (100000 cells/35 mm culture plate), which were cultured overnight, with the FuGENE6 transfection reagent (Roche). 2.5 hours after the starting of the transfection, the COS7 cells were collected by trypsinization and centrifugation, and re-suspended in a medium of 200 μl. 20 μl of the cell suspension was placed on the lid of the culture plate (inside) and the lid was turned over, and then the suspension was cultivated for 20 hours (hanging drop culture) (Cell 78, 425, 1994). When the culture was over, aggregated COS7 cells (clump) were collected and trimmed to a diameter of 0.5 mm. The Sema3A-expressing COS7 cell clump and the above-mentioned dorsal root ganglions were placed in parallel at a distance of 0.5 to 1 mm in a 0.2% collagen gel which was then cultivated in a medium containing the aforementioned compounds at various concentrations for 2 days at 37° C. under 5% CO2. Glutaraldehyde was quickly added therein to make the final concentration 1%. The cultures were then left for 1 hour at room temperature so that the tissues were fixed, and the neurite outgrowth was microscopically observed. The results are found in FIG. 4.
When a medium not containing a subject compound was used, neurites were unable to grow towards the COS7 cell clump with the high concentration of Sema3A and grew only to the opposite direction.
In a similar way as in Example 4, suppression of the neurite outgrowth inhibitory activity was analyzed for the compounds, SPF-3059-1, SPF-3059-2 and SPF-3059-5. When the neurites outgrew in a complete concentric circular shape just like for the control groups where Sema3A-non-expressing COS7 cells were used, it was scored +++ (a strong inhibitory effect for Sema3A). When the outgrowth was found almost in a concentric circular shape accompanied with a little suppression of the outgrowth toward the direction of Sema3A-expressing COS cells, it was scored ++. […] When the outgrowth toward the direction of Sema3A-expressing COS cells was not found at all (no inhibitory effect for Sema3A), it was scored −.

COS7 cells = assay: Effect on cell proliferation (MTT); format: cell-based; settings: two days
Method: COS7 cells were seeded onto a 96-well plate (medium 100 μl/well) at 10000 cells per well. At the same time, SPF-3059-1 of various concentrations was added and the cells were cultivated for two days in the presence of 5% CO2 at 37° C. Each well was then added with 10 μl of MTT solution at 5 mg/ml and cultured for another one hour. Subsequently, the culture supernatant was removed and formazan (an MTT derivative produced in viable cells) accumulated in the cells was dissolved by the addition of 50 μl DMSO and then the absorbance at 570 nm was measured to determine the proliferation of COS7 cells. […] The longitudinal and lateral axes in the figure show cell proliferation and the SPF-3059-1 concentration, respectively. Besides, the standard deviation (n=4) was added to each column.
The same effect on cell proliferation as in Example 9 was examined for the compounds, SPF-3059-1, SPF-3059-2 and SPF-3059-5. The wells with these compounds were served as samples, the wells with PBS were served as control, and the wells for which the experiment was carried out without adding the cells was served as blank. IC50 (μg/ml), the inhibitory rate for cell proliferation, was determined, which is calculated by the equation shown below. The inhibitory rate for cell proliferation (%)=(1−(absorbance of a sample well−absorbance of the blank well)/(absorbance of the control well−absorbance of the blank well))×100

suppression of neurite outgrowth inhibitory activity of Sema3A, score (Sema3A; 0.5 μg/ml compound): +
suppression of neurite outgrowth inhibitory activity of Sema3A, score (Sema3A; 1.0 μg/ml compound): ++
suppression of neurite outgrowth inhibitory activity of Sema3A, score (Sema3A; 2.0 μg/ml compound): +++
Structure (SMILES): CC(=O)c1c(C)c(C(=O)C2COc3cc(O)c(O)c(C(=O)O)c3C2=O)cc2c(=O)c3c(C(=O)O)c(O)c(O)cc3oc12 (stereo not drawn) [SPF-3059-1]
persistent inhibitory action to Sema3A (neurite outgrowth toward Sema3A-expressing COS7 cell clump) (Sema3A; collagen gel co-culture, 2 days): persistently inhibit Sema3A activities; also recorded: persistently inhibited the action of Sema3A
IC50 (COS7 cells; Chlorocebus aethiops, COS-7, 48 h, read-out: IC50, inhibitory rate for cell proliferation): > 300 µg/mL
suppressing activity for cell proliferation (in words) (COS7 cells): no suppressing activity
